Assays:
[1] = system: mice; assay: Hypothermia with apomorphine (16 mg/kg i.p.); type: in vivo; conditions: 30 minutes before apomorphine 16 mg/kg i.p.
Description: The administration of a very strong dose of apomorphine (16 mg/kg i.p.) causes hypothermia of approximately 4° C. by the stimulation of dopaminergic heteroreceptors situated on the noradrenergic neurones. The so-created hypothermia is thus due to the failure of noradrenergic neurotransmission. The facilitating agents administered 30 minutes beforehand counteract this hypothermia.

[2] = system: mice; assay: Psycho-awakening effect: sodium barbital (270 mg/kg i.p.) induced narcosis duration; type: in vivo; conditions: 30 μmols/kg i.p.
Description: Male mice are administered sodium barbital by the i.p. route at a dose of 270 mg/kg. The duration of the narcosis so induced is compared between control animals and animals treated beforehand by the i.p. route with the compounds examined.

[3] = system: mice; assay: Hexobarbital (75 mg/kg i.p.) induced narcosis duration; type: in vivo
Description: This antagonism of barbital-induced narcosis reflects a psycho-awakening effect since no antagonism occurs when narcosis is induced with hexobarbital (75 mg/kg i.p.) (product of Example 2β:+20%; product of Example 1:+26%).

[4] = system: mice; assay: Cerebral protecting effects: acute global hypoxia (barometric depressurization to 160 mbar), cerebral survival time; type: in vivo; conditions: 60 minutes before hypoxia
[5] = system: mice; assay: as above; type: in vivo; conditions: 30 minutes before hypoxia; for increase in the survival time: male mice
Description: The cerebral survival time taken as the occurrence of the last respiratory gasp is measured in control animals and in animals that have received the compound under examination 30 minutes beforehand by the intraperitoneal route.

[6] = system: synaptosomal reuptake of noradrenaline (NAD); assay: Synaptosomal reuptake of tritiated noradrenaline in vitro; type: biochemical; conditions: 10^-6 M, synaptosomes, versus control preparation
Description: This effect was examined in the […] by measuring the synaptosomal reuptake of noradrenaline (NAD). For this, a fraction of synaptosomes is placed in the presence of tritiated NAD with or without previous incubation with the compound examined.
A measurement of the radioactivity in the synaptosomal pellet makes it possible to calculate the quantity of NAD reuptaken naturally by neurone endings. A compound inhibiting the reuptake reduces the radioactivity measured and a percentage inhibition is measured by comparison with a control preparation.

[7] = system: mice; assay: Lethal dose test with yohimbine (potentiation of yohimbine 30 mg/kg i.p.), percentage mortality; type: in vivo; conditions: 9 μmols/kg i.p., 30 minutes before yohimbine 30 mg/kg i.p.
Description: (§1) Male mice are administered yohimbine (α2 antagonist) by the intraperitoneal route at a dose of 30 mg/kg, a non-lethal dose which only causes the occurrence of hyperexcitability symptoms or convulsions. Any compound that facilitates noradrenergic neurotransmission potentiates the releasing effect of the yohimbine and brings about the death of the animals.
(§2) A percentage mortality is thus measured for each group of animals treated 30 minutes beforehand i.p. or 60 minutes beforehand p.o. with the compound examined.

[8] = as above; type: in vivo, mice; conditions: mouse, in vivo; yohimbine lethality potentiation, mice; read-out: relationship between the mean effective p.o. and i.p. doses (oral bioavailability)
Description: as §1, §2

Fc1cc2c(c(OCC3CNCCO3)c1)NCCC2 (racemic) [Example 1, R,S-6-fluoro-8-(2-morpholinylmethoxy)-1,2,3,4-tetrahydroquinoline]
inhibiting effect vis-a-vis hypothermia ([1]; 3 μmols/kg): -27% | inhibiting effect vis-a-vis hypothermia ([1]; 9 μmols/kg): -46% | change in duration of narcosis with barbital [2]: -36% | change in duration of narcosis induced with hexobarbital [3]: +26%

Fc1ccc(OCC2CNCCO2)c2c1CCCN2 (racemic) [Example 2, R,S-5-fluoro-8-(2-morpholinylmethoxy)-1,2,3,4-tetrahydroquinoline]
inhibiting effect vis-a-vis hypothermia ([1]; 9 μmols/kg): -29%

c1cc2c(c(OCC3CNCCO3)c1)NCCC2 (racemic) [reference product, R,S-8-[(2-morpholinyl)methoxy]-1,2,3,4-tetrahydroquinoline, reference compound]
inhibiting effect vis-a-vis hypothermia ([1]; 3 μmols/kg): no effect | inhibiting effect vis-a-vis hypothermia ([1]; 9 μmols/kg): +0.5% | increase in the survival time ([4]; 40 μmols/kg orally): 31% | increase in the survival time ([5]; 3 μmols/kg i.p.): +5% | increase in the survival time ([5]; 9 μmols/kg i.p.): +17% | increase in the survival time ([5]; 30 μmols/kg i.p.): +42% | increase in the survival time ([5]; 90 μmols/kg i.p.): +87% | minimal effective dose ([5]; Mus musculus, ip, read-out: dose from which hypoxia is significantly counteracted (protecting effect obtained)): 9 µmol/kg | inhibition of the reuptake of NAD [6]: 33.6% | mortality [7]: +20% | ratio of mean effective p.o. to i.p. dose [8]: 4.25 | change in duration of narcosis with barbital [2]: -20%

CS(=O)(=O)O.Fc1cc2c(c(OC[C@H]3CNCCO3)c1)NCCC2 [Example 1α, R-6-fluoro-8-(2-morpholinylmethoxy)-1,2,3,4-tetrahydroquinoline monomethanesulphonate]
increase in the survival time ([4]; 9 μmols/kg orally): 37% | increase in the survival time ([5]; 9 μmols/kg i.p.): +37% | increase in the survival time ([5]; 30 μmols/kg i.p.): +55% | increase in the survival time ([5]; 90 μmols/kg i.p.): +114% | ratio of mean effective p.o. to i.p. dose [8]: 3.16

Fc1cc2c(c(OC[C@@H]3CNCCO3)c1)NCCC2 [Example 1β, S-6-fluoro-8-(2-morpholinylmethoxy)-1,2,3,4-tetrahydroquinoline monomethanesulphonate]
increase in the survival time ([5]; 3 μmols/kg i.p.): +21% | increase in the survival time ([5]; 9 μmols/kg i.p.): +42% | increase in the survival time ([5]; 30 μmols/kg i.p.): +62% | increase in the survival time ([5]; 90 μmols/kg i.p.): +108% | inhibition of the reuptake of NAD [6]: -55.4%

Fc1ccc(OC[C@H]2CNCCO2)c2c1CCCN2 [Example 2α, R-5-fluoro-8-(2-morpholinylmethoxy)-1,2,3,4-tetrahydroquinoline monomethanesulphonate]
ratio of mean effective p.o. to i.p. dose [8]: 1.77

Fc1ccc(OC[C@@H]2CNCCO2)c2c1CCCN2 [Example 2β, S-5-fluoro-8-(2-morpholinylmethoxy)-1,2,3,4-tetrahydroquinoline monomethanesulphonate]
inhibiting effect vis-a-vis hypothermia ([1]; 3 μmols/kg): -16% | inhibiting effect vis-a-vis hypothermia ([1]; 9 μmols/kg): -21% | increase in the survival time ([5]; 3 μmols/kg i.p.): 21% | inhibition of the reuptake of NAD [6]: -58.9% | change in duration of narcosis with barbital [2]: 40% | change in duration of narcosis induced with hexobarbital [3]: +20%

From patent US5026701A, “Morpholine compounds, compositions and use” (Adir et Compagnie, priority 1989, dated 1991)
